Assay results as given in patent publication EP4818324A1, “BIOLOGICAL METHOD FOR PREPARING 1,2-PROPANEDIOL” (Tianjin University, priority 2023, dated 2025).

Assays:
[1] = test system: Lactiplantibacillus plantarum 1,5-anhydroglucitol-6-phosphate isomerase LpYbiW (Uniprot A0A807DR53), SEQ ID NO: 2; assay: Michaelis-Menten kinetics of LpYbiW, coupled with LpFsaA and EcGldA, NADH consumption at A340nm; format: biochemical; conditions: substrate 1,5-anhydroglucitol-6-phosphate at varying concentrations; 100 nM activated LpYbiW, 20 mM Tris/HCl pH 7.5, 100 mM KCl, 0.4 mM NADH, glove box
Description: The Michaelis-Menten kinetic parameters of LpYbiW were determined by coupling with LpFsaA and EcGldA. The reaction rate of LpYbiW was monitored by measuring NADH consumption at A340nm. The absorbance change of the reaction system at 340 nm was measured every 5 seconds using the cuvette mode of an ultra-micro UV-visible spectrophotometer (Nanophotometer) in a glove box (1 cm light path). These reaction systems consisted of 100 nM activated LpYbiW, 20 mM Tris/HCl, (pH 7.5), 100 mM KCl, 1,5-anhydroglucitol-6-phosphate with varying concentrations, 5 µM LpFsaA, 5 µM EcGldA, and 0.4 mM NADH.

[2] = biological target: T1, Escherichia coli strain K12 1,5-anhydromannitol-6-phosphate isomerase EcPflD (Uniprot P32674), SEQ ID NO: 98 (Escherichia coli, UniProt P32674); assay: Michaelis-Menten kinetics of EcPflD, coupled with EcFsaB and EcGldA, decrease in A340nm; format: biochemical; conditions: substrate 1,5-AM-6P at various concentrations; 40 nM activated EcPflD, 20 mM Tris/HCl pH 7.5, 100 mM KCl, 0.4 mM NADH, glove box
T1 sequence (P32674 1-765): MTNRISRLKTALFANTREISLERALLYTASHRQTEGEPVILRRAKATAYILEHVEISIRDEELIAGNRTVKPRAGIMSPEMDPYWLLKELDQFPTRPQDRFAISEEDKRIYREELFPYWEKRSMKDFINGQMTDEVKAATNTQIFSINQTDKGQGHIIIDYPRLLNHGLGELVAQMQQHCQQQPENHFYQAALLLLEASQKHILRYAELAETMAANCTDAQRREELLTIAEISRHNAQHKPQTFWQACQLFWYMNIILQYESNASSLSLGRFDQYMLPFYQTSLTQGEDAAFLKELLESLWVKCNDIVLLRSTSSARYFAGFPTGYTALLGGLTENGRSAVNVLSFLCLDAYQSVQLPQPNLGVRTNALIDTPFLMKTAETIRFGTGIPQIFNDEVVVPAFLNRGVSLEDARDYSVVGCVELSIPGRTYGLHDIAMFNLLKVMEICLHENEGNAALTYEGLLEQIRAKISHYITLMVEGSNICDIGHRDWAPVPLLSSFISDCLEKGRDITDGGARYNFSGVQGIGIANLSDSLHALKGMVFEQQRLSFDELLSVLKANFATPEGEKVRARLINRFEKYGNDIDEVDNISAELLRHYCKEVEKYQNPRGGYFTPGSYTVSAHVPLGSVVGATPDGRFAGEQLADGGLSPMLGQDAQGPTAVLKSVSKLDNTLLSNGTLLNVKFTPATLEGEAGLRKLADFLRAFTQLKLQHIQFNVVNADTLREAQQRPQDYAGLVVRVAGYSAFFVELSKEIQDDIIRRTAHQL
Description: The reaction system containing 20 mM Tris/HCl, (pH 7.5), 100 mM KCl, 40 nM activated EcPflD and 1,5-AM-6P with various substrate concentrations, 2 µM EcFsaB, 2 µM EcGldA, and 0.4 mM NADH was measured using a cuvette mode of an ultra-micro UV-Vis spectrophotometer (Hangzhou Miu Instruments Co., Ltd.) in a 1 cm Eppendorf cuvette inside a glove box. The decrease in A340nm was monitored at 5-second intervals.

SMILES: O=P(O)(O)OC[C@H]1OC[C@H](O)[C@@H](O)[C@@H]1O [1,5-AG-6P, 1,5-anhydroglucitol-6-phosphate]
- Km [1]: 36.5 ± 6.66 mM
- kcat [1]: 43.38 ± 2.96 s^-1/LpYbiW

SMILES: O=P(O)(O)OC[C@H]1OC[C@@H](O)[C@@H](O)[C@@H]1O [1,5-AM-6P, 1,5-anhydromannitol-6-phosphate]
- Km [2]: 1.33 ± 0.12 mM
- kcat [2]: 33.47 ± 0.79 s^-1/EcPflD
